In PubChem BioAssay AID2060503 (Molecular Pharmacology Branch, DTP, NCI, 2025):

Test system: 817829-284-R-J1-PDC complex spheroids, viability
Test: Anticancer human tumor 817829-284-R-J1-PDC patient-derived colon adenocarcinoma cell line growth inhibition [GQUAD]
Conditions: for IC50: curve of first compound; for viability, T/C: stronger effect = lower value
How it was run: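 Viability of tumor cells grown as complex spheroids with endothelial and stromal cells, exposed to drug combinations. Top concentration at or near clinical Cmax (else 10 microM), diluted in half-log increments.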

[1] = second compound 0.0316 µM, first compound 0.0316 µM
[2] = second compound 0.0316 µM, first compound 0.1 µM
[3] = second compound 0.0316 µM, first compound 0.316 µM
[4] = second compound 0.0316 µM, first compound 1 µM
[5] = second compound 0.0316 µM, first compound 3.16 µM
[6] = second compound 0.0316 µM, first compound 10 µM
[7] = second compound 0.1 µM, first compound 0.0316 µM
[8] = second compound 0.1 µM, first compound 0.1 µM
[9] = second compound 0.1 µM, first compound 0.316 µM
[10] = second compound 0.1 µM, first compound 1 µM
[11] = second compound 0.1 µM, first compound 3.16 µM
[12] = second compound 0.1 µM, first compound 10 µM
[13] = second compound 0.316 µM, first compound 0.0316 µM
[14] = second compound 0.316 µM, first compound 0.1 µM
[15] = second compound 0.316 µM, first compound 0.316 µM
[16] = second compound 0.316 µM, first compound 1 µM
[17] = second compound 0.316 µM, first compound 3.16 µM
[18] = second compound 0.316 µM, first compound 10 µM
[19] = second compound 1 µM, first compound 0.0316 µM
[20] = second compound 1 µM, first compound 0.1 µM
[21] = second compound 1 µM, first compound 0.316 µM
[22] = second compound 1 µM, first compound 1 µM
[23] = second compound 1 µM, first compound 3.16 µM
[24] = second compound 1 µM, first compound 10 µM
[25] = second compound 3.16 µM, first compound 0.0316 µM
[26] = second compound 3.16 µM, first compound 0.1 µM
[27] = second compound 3.16 µM, first compound 0.316 µM
[28] = second compound 3.16 µM, first compound 1 µM
[29] = second compound 3.16 µM, first compound 3.16 µM
[30] = second compound 3.16 µM, first compound 10 µM
[31] = second compound 10 µM, first compound 0.0316 µM
[32] = second compound 10 µM, first compound 0.1 µM
[33] = second compound 10 µM, first compound 0.316 µM
[34] = second compound 10 µM, first compound 1 µM
[35] = second compound 10 µM, first compound 3.16 µM
[36] = second compound 10 µM, first compound 10 µM
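Further: spheroids exposed to agents for 7 days before readout.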
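Wherever viability, T/C is given: percent viability relative to DMSO vehicle control taken as 100%.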

Compound: CC1COCCN1c1cc(C2(S(C)(=N)=O)CC2)nc(-c2ccnc3[nH]ccc23)n1 (stereo not drawn) + Cc1[nH]c2ccc(F)cc2c1-c1nc2c3cccnc3c3ncccc3c2[nH]1
- IC50 (second compound 0.0316 µM): 699 nM
- IC50 (second compound 0.1 µM): 701 nM
- IC50 (second compound 0.316 µM): 683 nM
- IC50 (second compound 1 µM): 709 nM
- IC50 (second compound 3.16 µM): 508 nM
- IC50 (second compound 10 µM): < 31.6 nM
- viability, T/C [1]: 110%
- viability, T/C [2]: 95.6%
- viability, T/C [3]: 106%
- viability, T/C [4]: 25.7%
- viability, T/C [5]: 11.6%
- viability, T/C [6]: 8.11%
- viability, T/C [7]: 96.8%
- viability, T/C [8]: 107%
- viability, T/C [9]: 93.4%
- viability, T/C [10]: 30.4%
- viability, T/C [11]: 10.7%
- viability, T/C [12]: 7.69%
- viability, T/C [13]: 94.7%
- viability, T/C [14]: 106%
- viability, T/C [15]: 95.3%
- viability, T/C [16]: 27.5%
- viability, T/C [17]: 11.1%
- viability, T/C [18]: 8.75%
- viability, T/C [19]: 89.8%
- viability, T/C [20]: 117%
- viability, T/C [21]: 105%
- viability, T/C [22]: 27.2%
- viability, T/C [23]: 10.7%
- viability, T/C [24]: 6.79%
- viability, T/C [25]: 97.7%
- viability, T/C [26]: 92%
- viability, T/C [27]: 77.4%
- viability, T/C [28]: 10.7%
- viability, T/C [29]: 6.38%
- viability, T/C [30]: 4.15%
- viability, T/C [31]: 45.7%
- viability, T/C [32]: 39.1%
- viability, T/C [33]: 30.1%
- viability, T/C [34]: 4.8%
- viability, T/C [35]: 4.1%
- viability, T/C [36]: 2.86%

Compound: COc1ccc([C@@H](O)c2cc(-c3ncnc4cc(N5CCOCC5)ccc34)c(F)cc2Cl)nn1 + Cc1[nH]c2ccc(F)cc2c1-c1nc2c3cccnc3c3ncccc3c2[nH]1
- IC50 (second compound 0.0316 µM): > 10000 nM
- IC50 (second compound 0.1 µM): > 10000 nM
- IC50 (second compound 0.316 µM): > 10000 nM
- IC50 (second compound 1 µM): 9780 nM
- IC50 (second compound 3.16 µM): 2260 nM
- IC50 (second compound 10 µM): 337 nM
- viability, T/C [1]: 110%
- viability, T/C [2]: 81.3%
- viability, T/C [3]: 103%
- viability, T/C [4]: 79.8%
- viability, T/C [5]: 87.4%
- viability, T/C [6]: 53.6%
- viability, T/C [7]: 92.1%
- viability, T/C [8]: 111%
- viability, T/C [9]: 93.4%
- viability, T/C [10]: 99.7%
- viability, T/C [11]: 84.1%
- viability, T/C [12]: 51.4%
- viability, T/C [13]: 82.2%
- viability, T/C [14]: 111%
- viability, T/C [15]: 115%
- viability, T/C [16]: 97.8%
- viability, T/C [17]: 81.5%
- viability, T/C [18]: 51.6%
- viability, T/C [19]: 96.5%
- viability, T/C [20]: 111%
- viability, T/C [21]: 132%
- viability, T/C [22]: 90%
- viability, T/C [23]: 72.6%
- viability, T/C [24]: 48.3%
- viability, T/C [25]: 102%
- viability, T/C [26]: 79%
- viability, T/C [27]: 103%
- viability, T/C [28]: 65.5%
- viability, T/C [29]: 45.1%
- viability, T/C [30]: 26%
- viability, T/C [31]: 41.2%
- viability, T/C [32]: 82.5%
- viability, T/C [33]: 45.6%
- viability, T/C [34]: 29.6%
- viability, T/C [35]: 33%
- viability, T/C [36]: 7.18%

Compound: Cn1ncnc1[C@H]1c2n[nH]c(=O)c3cc(F)cc(c23)N[C@@H]1c1ccc(F)cc1 + Cc1[nH]c2ccc(F)cc2c1-c1nc2c3cccnc3c3ncccc3c2[nH]1
- IC50 (second compound 0.0316 µM): > 316 nM
- IC50 (second compound 0.1 µM): > 316 nM
- IC50 (second compound 0.316 µM): > 316 nM
- IC50 (second compound 1 µM): > 316 nM
- IC50 (second compound 3.16 µM): 148 nM
- IC50 (second compound 10 µM): 79.9 nM
- viability, T/C (second compound 0.0316 µM, first compound 0.000999 µM): 93.8%
- viability, T/C (second compound 0.0316 µM, first compound 0.00316 µM): 88.8%
- viability, T/C (second compound 0.0316 µM, first compound 0.00999 µM): 95.5%
- viability, T/C [1]: 82.2%
- viability, T/C (second compound 0.0316 µM, first compound 0.0999 µM): 96.1%
- viability, T/C [3]: 74.7%
- viability, T/C (second compound 0.1 µM, first compound 0.000999 µM): 93.5%
- viability, T/C (second compound 0.1 µM, first compound 0.00316 µM): 109%
- viability, T/C (second compound 0.1 µM, first compound 0.00999 µM): 94.5%
- viability, T/C [7]: 106%
- viability, T/C (second compound 0.1 µM, first compound 0.0999 µM): 89.2%
- viability, T/C [9]: 76.3%
- viability, T/C (second compound 0.316 µM, first compound 0.000999 µM): 83.9%
- viability, T/C (second compound 0.316 µM, first compound 0.00316 µM): 115%
- viability, T/C (second compound 0.316 µM, first compound 0.00999 µM): 102%
- viability, T/C [13]: 105%
- viability, T/C (second compound 0.316 µM, first compound 0.0999 µM): 86.5%
- viability, T/C [15]: 69.6%
- viability, T/C (second compound 1 µM, first compound 0.000999 µM): 82.6%
- viability, T/C (second compound 1 µM, first compound 0.00316 µM): 108%
- viability, T/C (second compound 1 µM, first compound 0.00999 µM): 116%
- viability, T/C [19]: 103%
- viability, T/C (second compound 1 µM, first compound 0.0999 µM): 80%
- viability, T/C [21]: 68.4%
- viability, T/C (second compound 3.16 µM, first compound 0.000999 µM): 89.1%
- viability, T/C (second compound 3.16 µM, first compound 0.00316 µM): 90.6%
- viability, T/C (second compound 3.16 µM, first compound 0.00999 µM): 87.5%
- viability, T/C [25]: 83.2%
- viability, T/C (second compound 3.16 µM, first compound 0.0999 µM): 54.6%
- viability, T/C [27]: 41.1%
- viability, T/C (second compound 10 µM, first compound 0.000999 µM): 69.3%
- viability, T/C (second compound 10 µM, first compound 0.00316 µM): 73.9%
- viability, T/C (second compound 10 µM, first compound 0.00999 µM): 76.3%
- viability, T/C [31]: 75.8%
- viability, T/C (second compound 10 µM, first compound 0.0999 µM): 44.3%
- viability, T/C [33]: 24.1%

Compound: O=C(c1cc(Cc2n[nH]c(=O)c3ccccc23)ccc1F)N1CCN(C(=O)C2CC2)CC1 + Cc1[nH]c2ccc(F)cc2c1-c1nc2c3cccnc3c3ncccc3c2[nH]1
- IC50 (second compound 0.0316 µM): > 10000 nM
- IC50 (second compound 0.1 µM): > 10000 nM
- IC50 (second compound 0.316 µM): > 10000 nM
- IC50 (second compound 1 µM): > 10000 nM
- IC50 (second compound 3.16 µM): 4160 nM
- IC50 (second compound 10 µM): 1070 nM
- viability, T/C [1]: 103%
- viability, T/C [2]: 85.7%
- viability, T/C [3]: 106%
- viability, T/C [4]: 87.3%
- viability, T/C [5]: 97.2%
- viability, T/C [6]: 63.3%
- viability, T/C [7]: 94%
- viability, T/C [8]: 109%
- viability, T/C [9]: 88.3%
- viability, T/C [10]: 98.8%
- viability, T/C [11]: 95.5%
- viability, T/C [12]: 60%
- viability, T/C [13]: 97.7%
- viability, T/C [14]: 99.7%
- viability, T/C [15]: 97.9%
- viability, T/C [16]: 96.6%
- viability, T/C [17]: 95.4%
- viability, T/C [18]: 60.8%
- viability, T/C [19]: 85.9%
- viability, T/C [20]: 115%
- viability, T/C [21]: 97.8%
- viability, T/C [22]: 97.4%
- viability, T/C [23]: 89.4%
- viability, T/C [24]: 62%
- viability, T/C [25]: 98.9%
- viability, T/C [26]: 98.5%
- viability, T/C [27]: 97.3%
- viability, T/C [28]: 93.8%
- viability, T/C [29]: 54.5%
- viability, T/C [30]: 35.6%
- viability, T/C [31]: 45.4%
- viability, T/C [32]: 46.9%
- viability, T/C [33]: 56.7%
- viability, T/C [34]: 54.7%
- viability, T/C [35]: 37.6%
- viability, T/C [36]: 20.7%
